Legend:
[1] = target: T1, human neurokinin 1 (NK1) receptor (Homo sapiens, UniProt P25103); assay: Neurokinin receptor binding assay, human NK1; conditions: CHO cell membranes, [3H]-Substance P, read-out: % Inhibition of NK1 at a dose of 1 μM
T1 construct: expressed in transfected cells; host or cells: CHO (Chinese hamster ovary) cells, membranes
Procedure: (§1) Chinese Hamster ovary (CHO) cells transfected with the coding regions for the human neurokinin 1 (NK1) of the human neurokinin 2 (NK2) receptors are grown in Dulbecco's minimal essential medium supplemented with 10% fetal calf serum, 0.1 mM non-essential amino acids, 2 mM glutamine, 100 units/ml of penicillin and streptomycin, and 0.8 mg of G418/ml at 37° C. in a humidified atmosphere containing 5% CO2.
(§2) Cells are detached from T-175 flasks with a sterile solution containing 5 mM EDTA in phosphate buffered saline. Cells are harvested by centrifugation and washed in RPMI media at […] for 5 minutes. The pellet is resuspended in Tris-HCl (pH7.4) containing 1 uM phsphoramidon and 4 ug/ml of chymostatin at a cell density of 30×10^6 cells/ml. The suspension is then homogenized in a Brinkman Polytron (setting 5) for 30-45 seconds. The homogenate is centrifuged at 800 x g for 5 min at 4° C. to collect unbroken cells and nuclei. The supernatant is centrifuged in a Sorvall RC5C at 19,000 rpm ([…]) for 30 min at 4° C. The pellet is resuspended, an aliquot is removed for a protein determination (BCA) and washed again. The resulting pellet is stored at -80° C.
(§3) To assay receptor binding, 50 μl of [^3 H]-Substance P (9-Sar, 11-Met) (specific activity 41 Ci/mmol) (Dupont-NEN) (0.8 nM for the NK-1 assay) or [^3 H]-Neurokinin A (specific activity 114 Ci/ mmole) (Zenca) (1.0 nM for the NK-2 assay) is added to tubes containing buffer (50 mM Tris-HCl (pH 7.4) with 1 mM MnCl2 and 0.2% Bovine Serum Albumin) and either DMSO or test compound. Binding is initiated by the addition of 100 μl of membrane (10-20 μg) containing the human NK-1 or NK-2 receptor in a final volume of 200 μl. After 40 minutes at room temperature, the reaction is stopped by rapid filtration onto Whatman GF/C filters which have been presoaked in 0.3% polyethylenimine. Filters are washed 2 times with 3 ml of 50 mM Tris-HCl (pH7.4). Filters are added to 6 mls of Ready-Safe liquid scintillation cocktail and quantified by liquid scintillation spectrometry in a LKB 1219 RackBeta counter. Non-specific binding is determined by the addition of either 1 μM of CP-99994 (NK-1) or 1 μM SR-48968 (NK-2) (both synthesized by the chemistry department of Schering-Plough Research Institute). IC50 values are determined from competition binding curves and Ki values are determined according to Cheng and Prusoff using the experimentally determined value of 0.8 nM for the NK-1 receptor and 2.4 nM for the NK-2 receptor.
(§4) % Inhibition is the difference between the percent of maximum specific binding (MSB) and 100%. The percent of MSB is defined by the following equation, wherein "dpm" is disintegrations per minute: [formula]

[2] = target: T2, human neurokinin 2 (NK2) receptor (Homo sapiens, UniProt P21452); assay: Neurokinin receptor binding assay, human NK2; conditions: CHO cell membranes, [3H]-Neurokinin A, read-out: % Inhibition of NK2 at a dose of 1 μM
T2 construct: expressed in transfected cells; host or cells: CHO (Chinese hamster ovary) cells, membranes
T2 sequence (P21452 1-398): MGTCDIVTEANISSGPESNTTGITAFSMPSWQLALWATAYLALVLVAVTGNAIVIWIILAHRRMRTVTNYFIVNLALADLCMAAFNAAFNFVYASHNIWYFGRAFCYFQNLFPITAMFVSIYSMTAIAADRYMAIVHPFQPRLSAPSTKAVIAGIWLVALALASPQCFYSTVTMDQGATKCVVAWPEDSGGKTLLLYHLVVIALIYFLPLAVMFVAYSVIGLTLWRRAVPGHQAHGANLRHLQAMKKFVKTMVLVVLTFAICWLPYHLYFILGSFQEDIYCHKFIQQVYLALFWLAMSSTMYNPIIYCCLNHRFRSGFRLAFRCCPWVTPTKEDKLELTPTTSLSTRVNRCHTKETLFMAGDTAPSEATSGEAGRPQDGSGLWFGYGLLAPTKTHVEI
Procedure: as §1, §2, §3, §4

T1 sequence (P25103 whole entry): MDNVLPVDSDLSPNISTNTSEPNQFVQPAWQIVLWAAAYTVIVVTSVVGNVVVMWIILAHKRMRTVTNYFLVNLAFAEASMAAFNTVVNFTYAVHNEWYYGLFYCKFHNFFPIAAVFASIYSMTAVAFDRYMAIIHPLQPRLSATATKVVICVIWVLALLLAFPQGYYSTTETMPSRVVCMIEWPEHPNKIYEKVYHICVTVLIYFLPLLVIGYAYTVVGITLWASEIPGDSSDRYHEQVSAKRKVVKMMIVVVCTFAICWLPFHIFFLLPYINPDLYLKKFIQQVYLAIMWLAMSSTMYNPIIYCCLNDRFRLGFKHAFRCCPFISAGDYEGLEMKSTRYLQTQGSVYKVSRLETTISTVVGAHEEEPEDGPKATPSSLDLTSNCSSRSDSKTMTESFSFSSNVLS

SMILES	inhibition at 1 µM [1]	inhibition at 1 µM [2]
CON=C(CN1CCC(O)(c2ccccc2)CC1)C(CN(C)C(=O)c1ccccc1)c1ccc(Cl)c(Cl)c1 (stereo not shown) [Example 18]	1%	15%
CN(CC(C(=O)CN1CCC(O)(c2ccccc2)CC1)c1ccc(Cl)c(Cl)c1)C(=O)c1ccccc1 (stereo not shown) [Example 16]	23%	96%
COC(CN1CCC(O)(c2ccccc2)CC1)C(CNC(=O)OC(C)(C)C)c1ccc(Cl)c(Cl)c1 (stereo not shown) [Example 12]	9%	68%
CN(C[C@H](c1ccc(Cl)c(Cl)c1)[C@@H](CN1CCC(O)(c2ccccc2)CC1)OCc1cc(C(F)(F)F)cc(C(F)(F)F)c1)C(=O)c1ccccc1 (relative stereo) [Example 19]	78%	18%
CN(C[C@H](c1ccc(Cl)c(Cl)c1)[C@@H](O)CN1CCC(O)(c2ccccc2)CC1)C(=O)c1ccccc1 (relative stereo) [Example 2]	81%	88%
